In patent US5902810A, “Pteridine derivatives as no synthase inhibitors” (Hoechst Aktiengesellschaft, priority 1994, dated 1999):

How the values were obtained:
NO synthase = settings: literature reports (Kwon et al.; Giovanelli et al.; Hevel and Marletta); cited from earlier work
[1] = target: T1, purified NO synthase from pig cerebellum (Sus scrofa, UniProt F1RKF2); assay: Inhibition of the activity of purified nitric oxide synthase (NOS), 3H-L-citrulline formation, enzyme from pig cerebellum; format: biochemical; settings: 0.25 h, substance 100 μM, antagonistic test in the presence of 2 μM tetrahydrobiopterin, 37° C., 15 minutes, read-out: Citrulline formation (% of the control)
T1 construct: purified NO synthase from pig cerebellum; from tissue; host or cells: pig cerebellum
Procedure: In this assay for purified NO synthase (NOS) the coproduct L-citrulline obtained during NO formation is determined quantitatively. This is carried out by the use of ^3 H-radiolabeled L-arginine as a substrate of the enzyme reaction, which is reacted to give ^3 H-L-citrulline and NO. After the enzyme incubation is complete, resulting L-citrulline is removed from unused L-arginine by means of ion-exchange chromatography of the reaction mixture; the ^3 H-activity determined by liquid scintillation measurement then corresponds to the amount of L-citrulline.
The coproduct L-citrulline obtained during the formation of NO by purified NOS is determined quantitatively in this activity assay. The substrate of the enzyme reaction employed is ^3 H-radiolabeled L-arginine, which is reacted to give ^3 H-L-citrulline and NO. After the enzyme incubation is complete, resulting L-citrulline is removed from unused L-arginine by means of ion-exchange chromatography of the reaction mixture; the ^3 H activity measured by liquid scintillation then corresponds to the amount of L-citrulline, which is a direct measure of the activity of NOS.
The base medium for carrying out the enzyme reaction is TE buffer (triethanolamine, EDTA, pH 7.0). The final volume of each incubation is 100 μl. The reaction mixture is obtained by mixing the following 6 components on ice:
"REA mix" (pH 7.0), which contains triethanolamine, calcium chloride, magnesium chloride, EDTA, L-arginine, calmodulin and flavine adenine dinucleotide (FAD);
2. freshly prepared stock solution of β-nicotinamide adenine dinucleotide phosphate, reduced form (NADPH); […]
Triethanolamine 50 mM, EDTA 0.5 mM, CaCl2 226 μM, MgCl2 477 μM, L-arginine 50 μM, calmodulin 0.5 μM, FAD 5 μM, NADPH 1 mM, BH4 (if added) 2 μM, substance to be tested 100 μM. […] 9 ml of scintillator solution are added to the 3 ml aqueous measuring solution and the homogeneous mixture is measured for 1 minute per sample in a Tricarb 2500 TR (Packard) liquid scintillation counter. […]

[2] = tested on: purified NO synthase from pig liver; assay: Inhibition of the activity of purified nitric oxide synthase (NOS), 3H-L-citrulline formation, enzyme from pig liver; format: biochemical; settings: substance 100 μM, antagonistic test in the presence of 2 μM tetrahydrobiopterin, 37° C., 15 minutes
From the text: The inhibition of NO release by the compounds of the formula I can be determined by an activity assay based on the studies of Bredt and Snyder and also Schmidt et al. (see D. S. Bredt and S. S. Snyder, Isolation of nitric oxide synthase, a calmodulin-requiring enzyme, Proc. Natl. Acad. Sci. USA 87 (1990), 682; H. H. H. W. Schmidt et al., Purification of a soluble isoform of guanylyl cyclase-activating factor synthase, Proc. Natl. Acad. Sci. USA 88 (1991), 365). In this assay for purified NO synthase (NOS) the coproduct L-citrulline obtained during NO formation is determined quantitatively. […] After the enzyme incubation is complete, resulting L-citrulline is removed from unused L-arginine by means of ion-exchange chromatography of the reaction mixture; the ^3 H-activity determined by liquid scintillation measurement then corresponds to the amount of L-citrulline. […]
The coproduct L-citrulline obtained during the formation of NO by purified NOS is determined quantitatively in this activity assay. […] After the enzyme incubation is complete, resulting L-citrulline is removed from unused L-arginine by means of ion-exchange chromatography of the reaction mixture; the ^3 H activity measured by liquid scintillation then corresponds to the amount of L-citrulline, which is a direct measure of the activity of NOS. […]

remaining activity at 100 µM [1]	SMILES	Effect on NO production / NO synthase activity (NO synthase)	also measured
	CC1CNc2nc(N)[nH]c(=O)c2N1 (stereo not shown) [6-methyl-5,6,7,8-tetrahydropterin]	increase in NO synthase activity	
	C[C@H](O)[C@H](O)C1=Nc2c(nc(N)[nH]c2=O)NC1 [7,8-dihydrobiopterin]	Stimulation of NO production	
60.8%	CC(NC(=O)OCc1ccccc1)C(=O)OCc1cnc2nc(N)[nH]c(=O)c2n1 (stereo not shown) [Example 21]		
2.5%	Nc1nc2ncc(COC(=O)C(Cc3ccccc3)NC(=O)OCc3ccccc3)nc2c(=O)[nH]1 (stereo not shown) [Example 23]		
22.9%	CSCc1cnc2nc(N)[nH]c(=O)c2n1 [Example 37]		
	N=c1[nH]c(N)nc2ncc(CN)nc12 [Example 76]		Citrulline formation (% of the control) [2]: 22.4 % of the control
	C[C@H](O)[C@H](O)c1cnc2nc(N)[nH]c(=O)c2n1 [biopterin]	no significant effects	
	Nc1nc2ncc(CNc3ccc(C(=O)N[C@@H](CCC(=O)O)C(=O)O)cc3)nc2c(=O)[nH]1 [folic acid]	no significant effects	
	Nc1nc2nccnc2c(=O)[nH]1 [pterin]	no significant effects	
	C[C@H](O)[C@H](O)[C@H]1CNc2nc(N)[nH]c(=O)c2N1 [tetrahydrobiopterin]	stimulates NO production	
